Test results taken from ChEMBL document CHEMBL6177959, “Design, synthesis and evaluation of novel carboline-triazole hybrids as promising antimalarial agents” (Eur J Med Chem, 2025).
Activity calls are given as the source filed them. The rule behind the calls is not given here.

Test system: Plasmodium falciparum
Assay: Antimalarial activity against chloroquine-sensitive Plasmodium falciparum 3D7 infected in human erythrocytes assessed as reduction in parasite growth incubated for 72 hrs by SYBR green dye fluorimetric assay
Format: functional, organism-based
Settings: 3D7, Erythrocyte

In order of falling IC50:
1. COc1ccc(-n2cc(CNC(=O)c3cc4c([nH]c5ccccc54)c(-c4ccccc4)n3)nn2)cc1  3050 nM
2. O=C(NCc1cn(-c2ccc(F)cc2F)nn1)c1cc2c([nH]c3ccccc32)c(-c2ccc(Cl)cc2Cl)n1  1700 nM
3. O=C(NCc1cn(-c2cccc(C(F)(F)F)c2)nn1)c1cc2c([nH]c3ccccc32)c(-c2ccccc2)n1  1470 nM
4. O=C(NCc1cn(-c2cccc(C(F)(F)F)c2)nn1)c1cc2c([nH]c3ccccc32)c(-c2ccc(Cl)cc2Cl)n1  1300 nM
5. O=C(NCc1cn(-c2ccccc2)nn1)c1cc2c([nH]c3ccccc32)c(-c2cccc(Cl)c2)n1  800 nM
6. CCc1ccc(-n2cc(CNC(=O)c3cc4c([nH]c5ccccc54)c(-c4ccc(C)cc4)n3)nn2)cc1  750 nM
7. COc1ccc(-c2nc(C(=O)NCc3cn(-c4cccc(C(F)(F)F)c4)nn3)cc3c2[nH]c2ccccc23)cc1  450 nM

Test system: Plasmodium falciparum
Assay: Antimalarial activity against […] infected in human erythrocytes assessed as reduction in parasite growth incubated for 72 hrs by SYBR green dye fluorimetric assay
Format: functional, organism-based
Settings: K1, Erythrocyte

In order of rising IC50:
1. CCc1ccc(-n2cc(CNC(=O)c3cc4c([nH]c5ccccc54)c(-c4ccc(C)cc4)n3)nn2)cc1  490 nM
2. COc1ccc(-c2nc(C(=O)NCc3cn(-c4cccc(C(F)(F)F)c4)nn3)cc3c2[nH]c2ccccc23)cc1  650 nM
3. O=C(NCc1cn(-c2ccccc2)nn1)c1cc2c([nH]c3ccccc32)c(-c2cccc(Cl)c2)n1  820 nM

Test system: not listed separately
Assay: Cytotoxicity against human HepG2 cells
Format: toxicity, cell-based
Settings: not given

In order of falling CC50:
1. O=C(NCc1cn(-c2ccccc2)nn1)c1cc2c([nH]c3ccccc32)c(-c2cccc(Cl)c2)n1  217000 nM
2. O=C(NCc1cn(-c2cccc(C(F)(F)F)c2)nn1)c1cc2c([nH]c3ccccc32)c(-c2ccccc2)n1  200000 nM
3. CCc1ccc(-n2cc(CNC(=O)c3cc4c([nH]c5ccccc54)c(-c4ccc(C)cc4)n3)nn2)cc1  200000 nM
4. COc1ccc(-c2nc(C(=O)NCc3cn(-c4cccc(C(F)(F)F)c4)nn3)cc3c2[nH]c2ccccc23)cc1  200000 nM
5. COc1ccc(-n2cc(CNC(=O)c3cc4c([nH]c5ccccc54)c(-c4ccccc4)n3)nn2)cc1  195000 nM
6. O=C(NCc1cn(-c2cccc(C(F)(F)F)c2)nn1)c1cc2c([nH]c3ccccc32)c(-c2ccc(Cl)cc2Cl)n1  195000 nM
7. O=C(NCc1cn(-c2ccc(F)cc2F)nn1)c1cc2c([nH]c3ccccc32)c(-c2ccc(Cl)cc2Cl)n1  144000 nM

Test system: Plasmodium falciparum
Assay: Induction of morphological changes in asexual blood stage Plasmodium falciparum assessed as appearance of fragmentation at 1 uM incubated for 24 hrs by Geimsa-staining based light microscopic analysis
Format: functional, organism-based
Settings: not given

In the case of `CCc1ccc(-n2cc(CNC(=O)c3cc4c([nH]c5ccccc54)c(-c4ccc(C)cc4)n3)nn2)cc1`, the Activity is reported as “Active; Irreversible Structural Deformations Observed”.

Test system: not listed separately
Assay: Selectivity index, ratio of CC50 for cytotoxicity against human HepG2 cells to IC50 for antimalarial activity against chloroquine-sensitive Plasmodium falciparum 3D7 infected in human erythrocytes assessed as reduction in parasite growth incubated for 72 hrs by SYBR green dye fluorimetric assay
Format: toxicity, cell-based
Settings: read-out: Ratio CC50/IC50

In order of rising selectivity ratio at 72 h:
1. COc1ccc(-n2cc(CNC(=O)c3cc4c([nH]c5ccccc54)c(-c4ccccc4)n3)nn2)cc1  64
2. O=C(NCc1cn(-c2ccc(F)cc2F)nn1)c1cc2c([nH]c3ccccc32)c(-c2ccc(Cl)cc2Cl)n1  84.5
3. O=C(NCc1cn(-c2cccc(C(F)(F)F)c2)nn1)c1cc2c([nH]c3ccccc32)c(-c2ccccc2)n1  136
4. O=C(NCc1cn(-c2cccc(C(F)(F)F)c2)nn1)c1cc2c([nH]c3ccccc32)c(-c2ccc(Cl)cc2Cl)n1  150
5. CCc1ccc(-n2cc(CNC(=O)c3cc4c([nH]c5ccccc54)c(-c4ccc(C)cc4)n3)nn2)cc1  266
6. O=C(NCc1cn(-c2ccccc2)nn1)c1cc2c([nH]c3ccccc32)c(-c2cccc(Cl)c2)n1  271
7. COc1ccc(-c2nc(C(=O)NCc3cn(-c4cccc(C(F)(F)F)c4)nn3)cc3c2[nH]c2ccccc23)cc1  444

Test system: Plasmodium falciparum
Assay: Induction of morphological changes in asexual blood stage Plasmodium falciparum assessed as appearance of schizonts at 1 uM incubated for 48 to 72 hrs by Geimsa-staining based light microscopic analysis
Format: functional, organism-based
Settings: time 48-72 hrs

With `CCc1ccc(-n2cc(CNC(=O)c3cc4c([nH]c5ccccc54)c(-c4ccc(C)cc4)n3)nn2)cc1` the Activity was “inactive”.

Test system: Plasmodium berghei
Assay: Antimalarial activity against GFP-luciferase expressing liver stage Plasmodium berghei sporozoites infected in human HepG2 cells assessed as inhibition of parasitic growth by luminescence based analysis
Format: functional, organism-based
Settings: not given

For `CCc1ccc(-n2cc(CNC(=O)c3cc4c([nH]c5ccccc54)c(-c4ccc(C)cc4)n3)nn2)cc1`, the IC50 was 7580 nM.

Test system: Plasmodium falciparum
Assay: Antimalarial activity against […] infected in human erythrocytes assessed as inhibition of parasitic growth at 5 uM incubated for 72 hrs by SYBR green dye fluorimetric assay relative to control
Format: functional, K1, Erythrocyte
Parameters: scale not given: the % may be the effect or the level left
Settings: not given

In the case of `CCc1ccc(-n2cc(CNC(=O)c3cc4c([nH]c5ccccc54)c(-c4ccc(C)cc4)n3)nn2)cc1`, the Activity is reported as 100%.

Test system: not listed separately
Assay: Resistance index, ratio of IC50 for antimalarial activity against […] infected in human erythrocytes to IC50 for antimalarial activity against chloroquine-sensitive Plasmodium falciparum 3D7 infected in erythrocytes
Format: functional
Settings: not given

In order of falling “Ratio IC50” value:
1. COc1ccc(-c2nc(C(=O)NCc3cn(-c4cccc(C(F)(F)F)c4)nn3)cc3c2[nH]c2ccccc23)cc1  1.44
2. O=C(NCc1cn(-c2ccccc2)nn1)c1cc2c([nH]c3ccccc32)c(-c2cccc(Cl)c2)n1  1.025
3. CCc1ccc(-n2cc(CNC(=O)c3cc4c([nH]c5ccccc54)c(-c4ccc(C)cc4)n3)nn2)cc1  0.65

Test system: Plasmodium falciparum
Assay: Induction of morphological changes in asexual blood stage Plasmodium falciparum assessed as appearance of condensed cytoplasm at 1 uM incubated for 24 hrs by Geimsa-staining based light microscopic analysis
Format: functional, organism-based
Settings: not given

For `CCc1ccc(-n2cc(CNC(=O)c3cc4c([nH]c5ccccc54)c(-c4ccc(C)cc4)n3)nn2)cc1`, the Activity was “Active; Irreversible Structural Deformations Observed”.

Test system: Plasmodium falciparum
Assay: Induction of morphological changes in asexual blood stage Plasmodium falciparum assessed as lack of prominent periphery in trophozoites at 1 uM incubated for 24 hrs by Geimsa-staining based light microscopic analysis
Format: functional, organism-based
Settings: not given

With `CCc1ccc(-n2cc(CNC(=O)c3cc4c([nH]c5ccccc54)c(-c4ccc(C)cc4)n3)nn2)cc1` the Activity was “Active; Irreversible Structural Deformations Observed”.

Test system: Plasmodium falciparum
Assay: Induction of morphological changes in asexual blood stage Plasmodium falciparum assessed as appearance of healthy rings at 1 uM incubated for 48 to 72 hrs by Geimsa-staining based light microscopic analysis
Format: functional, organism-based
Settings: time 48-72 hrs

With `CCc1ccc(-n2cc(CNC(=O)c3cc4c([nH]c5ccccc54)c(-c4ccc(C)cc4)n3)nn2)cc1` the Activity was “inactive”.

Test system: Plasmodium falciparum
Assay: Induction of morphological changes in asexual blood stage Plasmodium falciparum assessed as appearance of compact structure at 1 uM incubated for 24 hrs by Geimsa-staining based light microscopic analysis
Format: functional, organism-based
Settings: not given

For `CCc1ccc(-n2cc(CNC(=O)c3cc4c([nH]c5ccccc54)c(-c4ccc(C)cc4)n3)nn2)cc1`, the Activity was “Active; Irreversible Structural Deformations Observed”.
